How the values were obtained:
HT 1080 cells (FR−) = experiment: Flow cytometry uptake (Pyro fluorescence), HT 1080 cells; assay type: cell-based, human
Method: (§1) Flow cytometry experiments. KB, HT 1080, and CHO cells were seeded in T25 flasks (each flask 10^6 cells) and grown for 1 day in complete MEM (KB cells and HT 1080 cells) or complete F12K (CHO cells) medium. […] The cells were detached by 0.25% Trypsin-EDTA, fixed by 1% formaldehyde (methanol free) in PBS, resuspended in 1 mL of PBS and immediately analyzed on a BD LSRII machine at the Flow Cytometry Laboratory, Abramson Cancer Center at the University of Pennsylvania focusing on Pyro fluorescence (exc. 633 nm, em. 695 nm).

[1] = assay type: physicochemical
Method: Pyro-[…] (PP) Pyro-[…]-Folate (PPF) were purified by HPLC (Waters 600 Controller with a 2996 Photodiode Array Detector). The eluents were A=0.1M TEAA (pH 7) and B=acetonitrile and the method used for all injections was 90% of A and 10% of B to 100% of B in 45 minutes with flow 1.5 mL/min on a Zorbax 300SB-C3 column The coupling reagents HBTU (O-(Benzotriazol-1-yl)-N,N,N′,N′-tetramethyluronium hexafluorophosphate) and HOBt (1-Hydroxybenzotriazole) were purchased from Fluka and ACROS respectively. MALDI-ToF was measured on an Applied Biosystems Voyager DE Mass Spectrometer and fluorescence was measured on a Perkin Elmer LS50B Luminescence Spectrometer. We acquired confocal images using a Leica TCS SP2 Confocal Microscope and Xenogen images at the Bioluminescence Molecular Imaging Core facility at UPenn on an IVIS Xenogen Imager. KB cells (human epidermal cancer cells; folate receptor positive), HT 1080 cells (human fibrosarcoma cells; folate receptor negative), and CHO (Chinese hamster ovary cells; folate receptor negative) were purchased from ATCC. […]

CHO cells (FR−) = experiment: Flow cytometry uptake (Pyro fluorescence), CHO cells; assay type: cell-based, Chinese hamster
Method: as §1

KB cells (FR+) = experiment: Flow cytometry uptake (Pyro fluorescence), KB cells; assay type: cell-based, human
Method: as §1

With Pyro-K-Folate [PKF] the “uptake efficiency PPF versus PKF in HT 1080 cells” value (HT 1080 cells (FR−)) was “with the same efficiency”, the “solubility in water compared with PPF” value [1] was “less soluble in water” and the “hydrophobicity (HPLC) compared with PPF” value ([1]; HPLC) was “more hydrophobic”. For the same substance, the “uptake efficiency PPF versus PKF in CHO cells” value (CHO cells (FR−)) was “with the same efficiency” and the “uptake efficiency into KB cells relative to Pyro-GDEVDGSGK-Folate” value (KB cells (FR+)) was 50%.

From patent publication US20100075899A1, “TARGETED PHOTODYNAMIC THERAPY AGENT” (TRUSTEES OF THE UNIVERSITY OF PENNSYLVANIA, priority 2006, published 2010)
